# Measured values from PMC11078746 (Nature, 2024).
# Several values for one entry are separate records, joined by “and”; a condition that tells them apart may be missing. Identical values can stand only once.
# Tests used:
# Assay in all cases: MSI xenograft model efficacy
# Format in all cases: in vivo, mouse
# [1] = test system: IM95 xenograft; details: IM95, Gastric carcinoma; 60 or 120 mg/kg
# Method: (§1) All animal studies were conducted in accordance with ethics and procedures covered by permit BS-2275 and BS-1975 issued by the Kantonales Veterinäramt Basel-Stadt and in strict adherence to guidelines of the Eidgenössisches Tierschutzgesetz and the Eidgenössische Tierschutzverordnung, Switzerland. All animal studies were approved by the internal ethics committee. All animals had access to food and water ad libitum and were identified with transponders. They were housed in a specific-pathogen-free facility in IVC racks under a 12 h–12 h light–dark cycle. To establish cell-line-derived xenograft models, 6–7-week-old female athymic nude (Crl:NU(NCr)-Foxn1^nu) or SCID-BEIGE (CB17.Cg-PrkdcscidLystbg-J/Crl) mice from Charles River were engrafted subcutaneously with 5 million tumour cells in HBSS (H6648, Sigma-Aldrich). For SNU-407, Lovo, IM95, RL95.2, Ishikawa and IGROV-1, the cells were concentrated in 50% Matrigel (354234, Corning). Patient-derived xenografts were induced and expanded by transplantation as previously described. […] For the efficacy experiment, mice were randomized into groups (n = 5–6) for a mean tumour size of 100–150 mm^3. […] Blood samples were collected on day 7 and 91. […] Tumour responses are reported with the measures of tumour volumes from the treatment start. […] Animals were randomized (n = 3) and tumour samples were collected at 0, 1, 4, 8 and 24 h on the first day and then collected 4 h after the last treatment on day 3, 8, 10, 14 (including a 24 h timepoint), 17 and 21. Tumours were excised, weighed, either frozen in liquid nitrogen and cryogenic dry pulverized with the CryoPrep system (model CP-02, Covaris) or processed to FFPE after fixation. […] On day 12, blood samples were collected for PK analysis. On the last day (3 h after the last treatment), tumours were excised, weighed, frozen in liquid nitrogen and cryogenic dry pulverized for PD analysis.
# [2] = test system: OVK18 xenograft; details: OVK18, Ovarian carcinoma; 60 or 120 mg/kg
# Method: as §1
# [3] = test system: 5441-HX xenograft; details: colorectal carcinoma, 60 or 120 mg/kg
# Method: as §1
# [4] = test system: 2861-HX xenograft; details: colorectal carcinoma, 60 or 120 mg/kg
# Method: as §1
# [5] = test system: 1119-HX xenograft; details: colorectal carcinoma, 60 or 120 mg/kg
# Method: as §1
# [6] = test system: HCT116 TP53 WT xenograft; details: for Mean TVol / Tumour volume (TVol): HCT116 WT, 60 mpk; for Tumour volume (TVol): single mouse, 60 mg/kg
# Method: as §1
# [7] = test system: Ishikawa xenograft; details: Endometrial carcinoma, 60 or 120 mg/kg
# Method: as §1
# [8] = test system: LIM2405 xenograft; details: LIM2405, colorectal carcinoma; 60 or 120 mg/kg
# Method: as §1
# [9] = test system: 23132/87 xenograft; details: 23132/87, Gastric carcinoma; 60 or 120 mg/kg
# Method: as §1
# [10] = test system: RKO xenograft; details: colorectal carcinoma, 60 or 120 mg/kg
# Method: as §1
# [11] = test system: HCT116 TP53 null xenograft; details: for Mean TVol / Tumour volume (TVol): HCT116 p53 null, 60 mpk; for Tumour volume (TVol): single mouse, 60 mg/kg
# Method: as §1
# [12] = test system: IGROV1 xenograft; details: IGROV1, Ovarian carcinoma; 60 or 120 mg/kg
# Method: as §1
# [13] = test system: JHUEM2 xenograft; details: JHUEM2, Endometrial carcinoma; 60 or 120 mg/kg
# Method: as §1
# [14] = test system: LoVo xenograft; details: colorectal carcinoma, 60 or 120 mg/kg
# Method: as §1
# [15] = test system: TOV21G xenograft; details: Ovarian carcinoma, 60 or 120 mg/kg
# Method: as §1
structure (smiles),measurement,setting,value
CCc1c(N2CCN(C(=O)c3ncnc(C)c3O)CC2)c(=O)n2nc(C3=CCOCC3)nc2n1CC(=O)Nc1ccc(C(F)(F)F)cc1Cl [HRO761],Best average response,[1],-90
same,Best average response,[2],500
same,Best average response,[3],7
same,Best average response,[4],-70
same,Best average response,[5],-14
same,Best average response,"[6]; HCT116 P53 WT, colorectal carcinoma, 60 or 120 mg/kg",-60
same,Mean TVol,[6]; day 0,219.01 mm3
same,Tumour volume (TVol),[6]; day 0 post 1st dose,93.52 mm3 and 234.39 mm3 and 157.76 mm3 and 320.89 mm3 and 161.54 mm3 and 345.97 mm3
same,Mean TVol,[6]; day 3,281.33 mm3
same,Tumour volume (TVol),[6]; day 3,104.72 mm3 and 379.81 mm3 and 232.95 mm3 and 368.27 mm3 and 173.78 mm3 and 428.47 mm3
same,Mean TVol,[6]; day 7,242.31 mm3
same,Tumour volume (TVol),[6]; day 7,103.44 mm3 and 369.23 mm3 and 158.31 mm3 and 312.72 mm3
same,Mean TVol,[6]; day 10,237.77 mm3
same,Mean TVol,[6]; day 14,208.41 mm3
same,Tumour volume (TVol),[6]; day 14,70.08 mm3 and 324.15 mm3 and 133.86 mm3 and 295.48 mm3 and 98.69 mm3 and 328.18 mm3
same,Mean TVol,[6]; day 17,206.85 mm3
same,Tumour volume (TVol),[6]; day 17,71.54 mm3 and 333.55 mm3 and 123.78 mm3 and 277.24 mm3 and 67.49 mm3 and 367.52 mm3
same,Mean TVol,[6]; day 21,182.16 mm3
same,Tumour volume (TVol),[6]; day 21,68.28 mm3 and 318.05 mm3 and 133.60 mm3 and 239.83 mm3 and 55.74 mm3 and 277.43 mm3
same,Mean TVol,[6]; day 24,152.12 mm3
same,Tumour volume (TVol),[6]; day 24,51.97 mm3 and 322.25 mm3 and 104.45 mm3 and 220.64 mm3 and 35.09 mm3 and 178.30 mm3
same,Mean TVol,[6]; day 29,108.49 mm3
same,Tumour volume (TVol),[6]; day 29,53.97 mm3 and 224.74 mm3 and 66.70 mm3 and 182.17 mm3 and 28.07 mm3 and 95.29 mm3
same,Mean TVol,[6]; day 31,115.60 mm3
same,Tumour volume (TVol),[6]; day 31,67.20 mm3 and 248.87 mm3 and 79.67 mm3 and 165.88 mm3 and 35.96 mm3 and 96.04 mm3
same,Mean TVol,[6]; day 35,82.07 mm3
same,Tumour volume (TVol),[6]; day 35,74.11 mm3 and 171.12 mm3 and 62.35 mm3 and 120.74 mm3 and 20.08 mm3 and 43.99 mm3
same,Mean TVol,[6]; day 38,85.39 mm3
same,Tumour volume (TVol),[6]; day 38,95.75 mm3 and 187.18 mm3 and 54.75 mm3 and 135.21 mm3 and 15.88 mm3 and 23.55 mm3
same,Mean TVol,[6]; day 42,74.87 mm3
same,Tumour volume (TVol),[6]; day 42,111.35 mm3 and 127.20 mm3 and 44.64 mm3 and 140.38 mm3 and 12.27 mm3 and 13.40 mm3
same,Mean TVol,[6]; day 45,100.30 mm3
same,Tumour volume (TVol),[6]; day 45,197.14 mm3 and 123.97 mm3 and 48.50 mm3 and 218.58 mm3 and 10.09 mm3 and 3.53 mm3
same,Mean TVol,[6]; day 49,121.82 mm3
same,Tumour volume (TVol),[6]; day 49,316.70 mm3 and 100.63 mm3 and 72.22 mm3 and 229.46 mm3 and 10.59 mm3 and 1.31 mm3
same,Mean TVol,[6]; day 53,194.25 mm3
same,Tumour volume (TVol),[6]; day 53,483.74 mm3 and 180.66 mm3 and 93.29 mm3 and 393.80 mm3 and 13.76 mm3 and 0.25 mm3
same,Mean TVol,[6]; day 56,269.54 mm3
same,Tumour volume (TVol),[6]; day 56,671.24 mm3 and 160.85 mm3 and 148.76 mm3 and 618.00 mm3 and 18.36 mm3 and 0.00 mm3
same,Mean TVol,[6]; day 60,408.84 mm3
same,Tumour volume (TVol),[6]; day 60,1070.44 mm3 and 236.23 mm3 and 249.04 mm3 and 872.91 mm3 and 24.42 mm3 and 0.00 mm3
same,Best average response,[7],-70
same,Best average response,[8],44
same,Best average response,[9],200
same,Best average response,[10],300
same,Best average response,"[11]; HCT116 P53 null, colorectal carcinoma, 60 or 120 mg/kg",-100
same,Mean TVol,[11]; day 0,151.89 mm3
same,Tumour volume (TVol),[11]; day 0,114.28 mm3 and 172.75 mm3 and 98.96 mm3 and 162.60 mm3 and 112.69 mm3 and 250.04 mm3
same,Mean TVol,[11]; day 3,243.48 mm3
same,Tumour volume (TVol),[11]; day 3,162.58 mm3 and 332.14 mm3 and 148.24 mm3 and 251.18 mm3 and 212.27 mm3 and 354.49 mm3
same,Mean TVol,[11]; day 7,201.27 mm3
same,Tumour volume (TVol),[11]; day 7,115.63 mm3 and 278.64 mm3 and 112.69 mm3 and 190.13 mm3
same,Mean TVol,[11]; day 10,167.32 mm3
same,Mean TVol,[11]; day 14,78.55 mm3
same,Tumour volume (TVol),[11]; day 14,57.94 mm3 and 66.94 mm3 and 44.25 mm3 and 61.17 mm3 and 71.26 mm3 and 169.76 mm3
same,Mean TVol,[11]; day 17,56.92 mm3
same,Tumour volume (TVol),[11]; day 17,38.70 mm3 and 22.79 mm3 and 27.88 mm3 and 45.55 mm3 and 49.32 mm3 and 157.29 mm3
same,Mean TVol,[11]; day 21,29.14 mm3
same,Tumour volume (TVol),[11]; day 21,20.42 mm3 and 11.20 mm3 and 10.29 mm3 and 21.47 mm3 and 18.24 mm3 and 93.23 mm3
same,Mean TVol,[11]; day 24,15.47 mm3
same,Tumour volume (TVol),[11]; day 24,13.85 mm3 and 5.24 mm3 and 5.28 mm3 and 4.25 mm3 and 8.53 mm3 and 55.64 mm3
same,Mean TVol,[11]; day 29,6.87 mm3
same,Tumour volume (TVol),[11]; day 29,2.43 mm3 and 4.29 mm3 and 1.21 mm3 and 1.27 mm3 and 2.76 mm3 and 29.26 mm3
same,Mean TVol,[11]; day 31,4.02 mm3
same,Tumour volume (TVol),[11]; day 31,2.71 mm3 and 2.05 mm3 and 0.39 mm3 and 0.99 mm3 and 0.92 mm3 and 17.07 mm3
same,Mean TVol,[11]; day 35,3.16 mm3
same,Tumour volume (TVol),[11]; day 35,1.81 mm3 and 0.00 mm3 (2×) and 0.17 mm3 and 0.75 mm3 and 16.24 mm3
same,Mean TVol,[11]; day 38,4.17 mm3
same,Tumour volume (TVol),[11]; day 38,0.58 mm3 and 0.00 mm3 (3×) and 1.01 mm3 and 23.40 mm3
same,Mean TVol,[11]; day 42,4.73 mm3
same,Tumour volume (TVol),[11]; day 42,0.90 mm3 and 0.00 mm3 (4×) and 27.46 mm3
same,Mean TVol,[11]; day 45,6.85 mm3
same,Tumour volume (TVol),[11]; day 45,1.68 mm3 and 0.00 mm3 (4×) and 39.40 mm3
same,Mean TVol,[11]; day 49,7.67 mm3
same,Tumour volume (TVol),[11]; day 49,0.00 mm3 (5×) and 46.01 mm3
same,Mean TVol,[11]; day 53,9.89 mm3
same,Tumour volume (TVol),[11]; day 53,0.00 mm3 (5×) and 59.36 mm3
same,Mean TVol,[11]; day 56,14.65 mm3
same,Tumour volume (TVol),[11]; day 56,0.00 mm3 (5×) and 87.90 mm3
same,Mean TVol,[11]; day 60,17.60 mm3
same,Tumour volume (TVol),[11]; day 60,0.63 mm3 and 0.00 mm3 (4×) and 104.97 mm3
same,Best average response,[12],-38
same,Best average response,[13],400
same,Best average response,[14],-20
same,Best average response,[15],190
